Publication PMC8449414, “Rational design of ASCT2 inhibitors using an integrated experimental-computational approach” (Proceedings of the National Academy of Sciences of the …, 2021)
“Also recorded” adds a separate entry of the source.

What was measured:
hASCT1 = target: T1, hASCT1 (Homo sapiens, UniProt P43007); test: Electrophysiology: SLC1 specificity, anion current in transfected HEK293 cells; type: cell-based; conditions: for Ki: read-out: Binding affinity Ki
T1 construct: expressed in transfected cells; host or cells: HEK293 (ATCC CRL-11268), transient transfection
T1 sequence (P43007 1-532): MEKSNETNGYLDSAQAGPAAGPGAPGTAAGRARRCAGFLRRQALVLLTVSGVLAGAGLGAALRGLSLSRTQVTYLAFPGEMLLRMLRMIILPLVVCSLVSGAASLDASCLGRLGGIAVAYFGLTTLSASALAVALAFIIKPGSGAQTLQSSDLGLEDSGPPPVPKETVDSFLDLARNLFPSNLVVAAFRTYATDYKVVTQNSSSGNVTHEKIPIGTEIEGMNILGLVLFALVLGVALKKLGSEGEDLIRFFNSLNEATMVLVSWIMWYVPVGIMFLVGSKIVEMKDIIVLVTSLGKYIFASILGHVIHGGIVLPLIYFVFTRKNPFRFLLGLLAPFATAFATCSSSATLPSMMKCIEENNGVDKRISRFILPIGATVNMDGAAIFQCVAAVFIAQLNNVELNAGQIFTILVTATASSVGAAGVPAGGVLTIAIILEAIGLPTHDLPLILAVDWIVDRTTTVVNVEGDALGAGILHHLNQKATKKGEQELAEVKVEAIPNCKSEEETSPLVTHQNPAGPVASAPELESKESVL
Method: (§1) We also tested the specificity of Lc-BPE for ASCT2 over other SLC1 family members (ASCT1, EAAT1-3, and EAAT5).
(§2) Fig. S3. SLC-1 specificity of Lc-BPE. (A) Electrophysiological current responses to the application of 100 µM glutamate (red trace) or varying concentrations of Lc-BPE (black, blue and red traces) to rEAAT1-expressing cells HEK293 cells. (B-C) Dose response curves obtained from currents recorded a fter application of Lc-BPE extracellularly to cells transiently expressing hASCT2, rASCT2, hASCT1 (panel B) and rEAAT1, rEAAT2, rEAAT3 and hEAAT5 (panel C) respectively. For hASCT2, rASCT2 and hASCT1, intracellular pipette solution contained 10 mM alanine and 130 mM NaSCN. For rEAAT1, rEAAT2, rEAAT3 and hEAAT5, intracellular solution contained 10 mM glutamate and 130 mM NaSCN. Extracellular solution was the same for all the experiments (140 mM NaCl). The voltage was 0 mV. […]
(§3) Cell culture and transfection
(§4) Human embryonic kidney 293 (HEK293, ATCC CRL -11268) cells were cultured in DMEM media supplemented with 10% (v/v) fetal bovine serum (FBS), 2 mM glutamine, 1% penicillin streptomycin solution, 1 mM sodium pyruvate and non -essential amino acids. Cells were maintained at 370C in a fully humidified atmosphere containing 5% CO2. rASCT2, hASCT2, hASCT1, EAAT1, EAAT2, EAAT3, EAAT5 and YFP complementary DNAs were each used to transiently transfect HEK293 using POLYPLUS Jet-prime transfection reagent. Cells were analyzed using electrophysiological techniques 24-40 hours after transfection.
(§5) Electrophysiological techniques
(§6) Electrophysiological experiments were performed as described previously 1,2. Stock solutions of inhibitor was prepared in dimethyl sulfoxide (DMSO) up to 100 mM.
(§7) Dilutions to working concentrations were made using external buffer. The highest […]
(§8) cells. For rASCT2, hASCT2 and hASCT1, external buffer contained 140 mM NaCl, 2 mM MgCl2, 2 mM CaCl2, and 10 mM HEPES, pH 7.40 while internal pipette solution comprised of 130 mM NaSCN, 2 mM MgCl2, 10 mM EGTA, 10 mM HEPES and 10mM alanine, pH 7.40. For specificity experiments with EAAT1, EAAT2, EAAC1 and EAAT5, internal solution contained 10 mM glutamate instead of alanine. Compounds were applied to HEK293 cells expressing DNA of interest suspended from a current recording electrode in whole cell configuration44 through a rapid solution exchange device described previously45. Cells are immersed in external buffer bath used to dissolve the inhibitors. The open pipette resistance was between 3 and 6 MΩ. Series resistance was not compensated in these experiments due to relatively small currents. Current s traces were recorded using an Adams and List EPC7 amplifier and digitized using a Molecular Devices Digidata A/D converter.
(§9) Data analysis was performed as described previously 46. Linear and nonlinear curve fitting of the experimental data were analyzed using MicroCal Origin software. Linear plots were fitted using the general equation (y = a + bx) obtaining adjusted R 2 and Pearson’s r values. Nonlinear dose–response relationships were fitted with a Michaelis – Menten-like equation to obtain apparent Ki values in the absence of substrate. For competition studies, equation I = I1 + I2 [Inh]/(Ki + [Inh]) was used for fitting, where I1 is the alanine induced current without the inhibitor, and I2 is the maximum current in the presence of saturating inhibitor concentration, [Inh]max 1,2. At least five experiments were performed for each compound. Unless stated otherwise, the error bars in all our graphs represent mean ± SD .
(§10) ASCT2 expression and purification
(§11) Human ASCT2 (hASCT2) was produced in Pichia pastoris X-33 strain (Invitrogen) in fermentor26 and purified using DDM and CHS (Anatrace) and 1 mM L-glutamine (Merck) to maintain protein stability 27. Membranes representing ~1.5 g cells were solubilized in buffer A (25 mM Tris-HCl, pH 7.4, 300 mM NaCl, 10% (vol/vol) glycerol, 1 mM L - glutamine, 1% DDM and 0.1% CHS) for 1 h at 4 °C; ultracentrifuged (30 min, 442,907 × […]

hEAAT5 = target: T2, hEAAT5 (Homo sapiens, UniProt O00341); test: as above; type: cell-based; conditions: for Binding affinity Ki / Ki: HEK293 cells, 0 mV, 10 mM glutamate and 130 mM NaSCN internal, No current = no outward current up to highest concentration tested (§ 20-50, || 100-400, # 1500-2500 µM); for Ki: read-out: Binding affinity Ki
T2 construct: expressed in transfected cells; host or cells: HEK293 (ATCC CRL-11268), transient transfection
Method: as §1, §2, §3, §4, §5, §6, §7, §8, §9, §10, §11

[1] = HEK293 cells, 0 mV, 10 mM alanine and 130 mM NaSCN internal, No current = no outward current up to highest concentration tested (§ 20-50, || 100-400, # 1500-2500 µM)

T2 sequence (O00341 whole entry): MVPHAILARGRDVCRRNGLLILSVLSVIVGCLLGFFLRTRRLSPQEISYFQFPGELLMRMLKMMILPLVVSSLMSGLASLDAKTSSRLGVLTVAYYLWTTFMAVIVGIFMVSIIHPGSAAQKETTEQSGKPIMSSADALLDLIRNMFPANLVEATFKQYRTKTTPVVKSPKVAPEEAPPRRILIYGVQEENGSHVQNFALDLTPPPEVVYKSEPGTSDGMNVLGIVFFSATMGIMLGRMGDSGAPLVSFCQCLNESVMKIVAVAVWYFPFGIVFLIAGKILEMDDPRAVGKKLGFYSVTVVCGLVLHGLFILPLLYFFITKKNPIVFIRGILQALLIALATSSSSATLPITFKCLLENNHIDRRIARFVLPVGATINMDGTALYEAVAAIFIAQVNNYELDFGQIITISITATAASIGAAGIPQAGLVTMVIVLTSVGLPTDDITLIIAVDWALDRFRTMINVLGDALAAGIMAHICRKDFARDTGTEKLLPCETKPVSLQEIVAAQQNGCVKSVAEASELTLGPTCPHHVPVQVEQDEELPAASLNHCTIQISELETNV

| Binding affinity Ki (hEAAT5) | Ki (hASCT1; [1]) [µM] | Ki (hEAAT5) [µM] | Compound | other results |
| --- | --- | --- | --- | --- |
|  | 0.44 ± 0.14 | 1.05 ± 0.15 | O=C(O[C@@H]1CN[C@H](C(=O)O)C1)c1ccc(-c2ccc(C(F)(F)F)cc2)cc1 [ERA-5] |  |
|  | 1.33 ± 0.3 | 2.5 ± 0.93 | Cc1ccccc1-c1ccc(C(=O)O[C@@H]2CN[C@H](C(=O)O)C2)cc1 [ERA-6] |  |
| No current | 8.51 ± 3.87 |  | O=C(Nc1ccc(C(=O)O[C@@H]2CN[C@H](C(=O)O)C2)cc1)c1ccc(C(F)(F)F)cc1 [ERA-11] |  |
|  | 5.71 ± 0.91 | 6.17 ± 1.47 | O=C(O[C@@H]1CN[C@H](C(=O)O)C1)c1ccc(Oc2ccccc2)cc1 [ERA-16] |  |
|  | 11.6 ± 1.75 | 21.3 ± 3.15 | N[C@@H](COC(=O)c1ccc(NC(=O)c2ccccc2)cc1)C(=O)O [ERA-21] |  |
| No current | 170 ± 26.7 |  | N[C@@H](COC(=O)c1ccccc1)C(=O)O [ERA-25] |  |
| No current | 549 ± 306 |  | N[C@@H](COC(=O)c1cccnc1)C(=O)O [ERA-28] |  |
| No current |  |  | O=C(O[C@@H]1CN[C@H](C(=O)O)C1)C(c1ccccc1)c1ccccc1 [ERA-29] |  |
| No current | > 100 |  | O=C(O[C@@H]1CN[C@H](C(=O)O)C1)c1ccc(OCc2ccccc2)cc1 [ERA-31] |  |
| No current |  |  | O=C(O[C@H]1CN[C@H](C(=O)O)C1)c1ccc(C(=O)c2ccccc2)cc1 [ERA-35] |  |

| Compound | Binding affinity Ki (hEAAT5) | Ki (hASCT1; [1]) [µM] | Ki (hEAAT5) [µM] | other results |
| --- | --- | --- | --- | --- |
| O=C(O[C@@H]1CN[C@H](C(=O)O)C1)c1ccccc1-c1ccccc1 [ERA-3] | No current |  |  | Binding affinity Ki (hASCT1; [1]): No current |
| O=C(O[C@@H]1CN[C@H](C(=O)O)C1)c1ccc(-c2ccc(F)cc2)cc1 [ERA-4] |  | 0.9 ± 0.08 | 2.4 ± 0.72 |  |
| O=C(O[C@@H]1CN[C@H](C(=O)O)C1)c1ccc(C(O)c2ccccc2)cc1 (stereo partly drawn) [ERA-9] | No current; also recorded: No inhibitory activity was detected | 43 ± 13.4 |  |  |
| O=C(O[C@@H]1CN[C@H](C(=O)O)C1)c1ccc(-c2ccccc2)cc1 [Lc-BPE, L-cis hydroxyproline biphenyl ester] |  |  | 2.22 ± 0.46 | apparent affinity of hASCT1 lower than that of rASCT2 (hASCT1; hASCT1 versus rASCT2): ~3.8 fold; Ki for hEAAT5 higher than for rASCT2 (hEAAT5; hEAAT5 versus rASCT2): ~3 fold |
